One may read the IC50 as the midpoint of a concentration-inhibition curve. A word on the MIC: it is the smallest concentration in the dilution series that meets the test's criterion for growth inhibition. Lower therefore signals inhibition by little substance.

20 compounds from US12473283B2, “Compounds and their use” (Debiopharm International S.A., priority 2019, dated 2025) can be followed below.

The target in experiment [1] is FabI enzyme from Escherichia coli (Escherichia coli, UniProt P0AEK4). The experiment can be described thus: Inhibition of FabI enzyme, rate of NADH consumption. Format: biochemical. The protocol:
(§1) Inhibition of FabI enzyme from Acinetobacter baumannii and Escherichia coli was tested by measuring the rate of NADH consumption (Δabsorbance at 340 nm/min) at 30° C. in 96-well plate format using an automated plate reader in the presence or absence of the test compounds. The assay mixture contained 100 mM Tris-HCl, pH 7.25 (A. baumannii) or 7.5 (E. coli), 100 mM ammonium acetate, 0.02% (A. baumannii) or 0.05% (E. coli) Pluronic F-68, 25 μM crotonyl ACP, 50 μM NADH, 25 pM (A. baumannii) or 50 pM (E. coli) recombinant FabI protein, and 7.5% DMSO. Test compounds were added at concentrations ranging from 0.17 to 10,000 nM in a final well volume of 100 μl. This dose-response inhibitory assay was performed using a 10-point, serial dilution series for each test compound. IC50 values for each test compound were assigned from logistical sigmoid curve-fitting of the inhibition dose response curves.

Experiment [2] relates to A. baumannii ATCC BAA1605. Kind of experiment: Broth microdilution MIC assay. Particulars: Acinetobacter baumannii, ATCCBAA1605; CA-MHB, 35° C., 20 hours. Type of experiment: cell-based. The protocol:
(§2) The antibacterial activity of FabI inhibitors against select Gram-negative and Gram-positive bacterial species including susceptible and multi-drug resistant A. baumannii, E. coli, K. pneumoniae and S. aureus was tested using the broth microdilution Minimal Inhibitory Concentration (MIC) assay following CLSI guidelines for insoluble compounds. Test articles were serially diluted 2-fold in 100% dimethyl sulfoxide (DMSO) and then diluted 100-fold into cation adjusted Mueller-Hinton broth (CA-MHB) to achieve a 10-point test concentration range in 1% DMSO. Final compound concentrations were 0.016-8 μg/ml for S. aureus or 0.06-32 μg/ml for the Gram-negative species. MIC test plates were then prepared by transferring 100 μl of the final assay medium (test article in CA-MHB, 1% DMSO) into the appropriate wells of a sterile, low binding 96-well polystyrene plate. Direct colony suspension inoculums of the test strains were freshly prepared per CLSI guidelines, and the appropriate test wells were inoculated to achieve a final bacterial cell density of 5×10^5 CFU/ml. Growth control (no test article) and negative control (no bacterial inoculum) wells were also included. Exposure to light was minimized during all stages of assay preparation. […] Bacterial growth was then determined by measuring the optical density at 600 nm (OD600) using a SpectraMax Plus plate-reader spectrophotometer.
On the technique in general: In broth dilution the organism is exposed to a series of concentrations in liquid medium.

In another experiment the test system is K. pneumoniae A6030827. The experiment can be described thus: Broth microdilution MIC assay. Type of experiment: cell-based. Conditions: Klebsiella pneumoniae, CA-MHB, 35° C., 20 hours. As for the experimental part:
as §2

The subject of the next experiment is S. aureus ATCC 29213. Kind of experiment: Broth microdilution MIC assay. Format: cell-based. Particulars: Staphylococcus aureus, ATCC29213; CA-MHB, 35° C., 20 hours. As for the experimental part: as §2
Experiment [3] has as its target FabI enzyme from Acinetobacter baumannii (Acinetobacter baumannii, UniProt D0CAD5). Kind of experiment: Inhibition of FabI enzyme, rate of NADH consumption. Format: biochemical. The protocol:
as §1

The next experiment has as its system E. coli AG100. Kind of experiment: Broth microdilution MIC assay. Type of experiment: cell-based. Conditions: Escherichia coli, CA-MHB, 35° C., 20 hours. As for the experimental part: as §2
The mark [4] stands for this setting: recombinant FabI, 30° C., pH 7.5, read-out: E. coli Fabl IC50.
[5] abbreviates: recombinant FabI, 30° C., pH 7.25, read-out: A. baumannii Fabl IC50.

≈ marks a conversion by molar mass, not a printed value. Where two headings read alike, the source gives them in different places.

Sequence of FabI enzyme from Escherichia coli (P0AEK4 whole entry): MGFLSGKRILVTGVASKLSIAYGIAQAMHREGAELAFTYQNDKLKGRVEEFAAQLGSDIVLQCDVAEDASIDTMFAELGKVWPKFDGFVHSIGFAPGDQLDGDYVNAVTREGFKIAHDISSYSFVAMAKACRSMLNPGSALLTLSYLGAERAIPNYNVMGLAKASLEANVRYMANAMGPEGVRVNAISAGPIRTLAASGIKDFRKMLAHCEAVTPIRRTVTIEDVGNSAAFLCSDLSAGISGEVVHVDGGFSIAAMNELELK
Sequence of FabI enzyme from Acinetobacter baumannii (D0CAD5 entry or part of it): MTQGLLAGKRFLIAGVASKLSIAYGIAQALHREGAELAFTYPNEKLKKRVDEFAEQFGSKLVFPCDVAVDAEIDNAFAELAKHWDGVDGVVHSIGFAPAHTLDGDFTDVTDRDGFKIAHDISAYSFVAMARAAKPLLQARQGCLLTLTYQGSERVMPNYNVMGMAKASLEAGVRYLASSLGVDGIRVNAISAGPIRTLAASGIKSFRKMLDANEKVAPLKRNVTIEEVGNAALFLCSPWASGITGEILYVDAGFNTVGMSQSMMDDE

Consider `Cc1c(CN(C)C(=O)/C=C/c2cnc3c(c2)NC[C@@H](N2C[C@@H](C)O[C@@H](C)C2)C(=O)N3)oc2ccccc12` (single isomer, unassigned) [Compound 21], for which, in experiment [1] (setting [4]), the IC50 was < 10 nM. Also, the values for the MIC (in experiment [2]; against K. pneumoniae A6030827; against S. aureus ATCC 29213) were ≤ 4 µg/mL, 16 µg/mL (≈ 31.8 µM) and ≤ 4 µg/mL, respectively.

Turning to `Cc1oc2ccccc2c1CN(C)C(=O)/C=C/c1cnc2c(c1)NC[C@H](N1CC3(COC3)C1)C(=O)N2` (single isomer, unassigned) [Compound 35], the IC50 in experiment [1] (setting [4]) and in experiment [3] (setting [5]) was < 10 nM each time. In addition, the MIC (in experiment [2]; against S. aureus ATCC 29213) was ≤ 4 µg/mL in each case.

On to `Cc1c(CN(C)C(=O)/C=C/c2cnc3c(c2)CC[C@H](N)C(=O)N3)oc2ccccc12.Cl` (single isomer, unassigned) [Compound 71, hydrochloride], for which the IC50 in experiment [1] and in experiment [3] was < 10 nM in each case.

Consider `Cc1c(CN(C)C(=O)C=Cc2cnc3c(c2)CCC(N)C(=O)N3)oc2cccc(OC3CCC(N)CC3)c12` (single isomer, unassigned) [Compound 86], for which the IC50 in experiment [3] (setting [5]) was < 10 nM. Besides, the MIC (in experiment [2]; against K. pneumoniae A6030827; against S. aureus ATCC 29213; with E. coli AG100) was ≤ 4 µg/mL in each case.

Turning to `Cc1c(CN(C)C(=O)/C=C/c2cnc3c(c2)CC[C@H](N(C)C)C(=O)N3)oc2ccccc12` (single isomer, unassigned) [Compound 96], the IC50 in experiment [3] (setting [5]) is < 10 nM. Besides, the MIC in experiment [2] is ≤ 4 µg/mL; against K. pneumoniae A6030827, ≤ 4 µg/mL; with S. aureus ATCC 29213, ≤ 4 µg/mL; against E. coli AG100 it was 8 µg/mL (≈ 18.5 µM).

With `Cc1c(CN(C)C(=O)/C=C/c2cnc3c(c2)CC[C@H](N2CCOCC2)C(=O)N3)oc2c(F)cccc12` (single isomer, unassigned) [Compound 113], in experiment [3] (setting [5]), the IC50 is < 10 nM. For the same compound, the MIC was ≤ 4 µg/mL in experiment [2], ≤ 4 µg/mL against K. pneumoniae A6030827, ≤ 4 µg/mL against S. aureus ATCC 29213 and 8 µg/mL (≈ 16.2 µM) in the experiment with E. coli AG100.

As for `Cc1c(CN(C)C(=O)/C=C/c2cnc3c(c2)CC[C@H](N)C(=O)N3)sc2ccccc12.Cl` (single isomer, unassigned) [Compound 119, hydrochloride], the IC50 in experiment [1] and in experiment [3] was < 10 nM each time.

In the case of `Cc1c(CN(C)C(=O)/C=C/c2cnc3c(c2)CC[C@H](N)C(=O)N3)oc2cccc(F)c12.Cl` (single isomer, unassigned) [Compound 130], the MIC (in experiment [2]; against K. pneumoniae A6030827; with S. aureus ATCC 29213; against E. coli AG100) was ≤ 4 µg/mL each time.

On to `Cc1c(CN(C)C(=O)/C=C/c2cnc3c(c2)CC[C@H](N)C(=O)N3)sc2c(F)cccc12.Cl` (single isomer, unassigned) [Compound 140], for which the MIC (in experiment [2]; in the experiment with K. pneumoniae A6030827; against S. aureus ATCC 29213; against E. coli AG100) was ≤ 4 µg/mL in each case.

Regarding `Cc1c(CN(C)C(=O)/C=C/c2cnc3c(c2)CC[C@H](N)C(=O)N3)oc2cccc(CNc3cccnc3)c12.Cl.Cl` (single isomer, unassigned) [Compound 167], the MIC (in experiment [2]; against K. pneumoniae A6030827; in the experiment with S. aureus ATCC 29213; in the experiment on E. coli AG100) was ≤ 4 µg/mL in each case.

As for `Cc1c(CN(C)C(=O)/C=C/c2cnc3c(c2)CC[C@H](N2CC(O)C2)C(=O)N3)oc2ccccc12` (single isomer, unassigned) [Compound 171], the IC50 in experiment [3] (setting [5]) is < 10 nM. For the same compound, the MIC (in experiment [2]; with K. pneumoniae A6030827; in the experiment with S. aureus ATCC 29213; in the experiment on E. coli AG100) was ≤ 4 µg/mL in each case.

`Cc1c(CN(C)C(=O)/C=C/c2cnc3c(c2)CC[C@H](N2CC4(COC4)C2)C(=O)N3)oc2ccccc12` (single isomer, unassigned) [Compound 190]: the IC50 in experiment [1] (setting [4]) and in experiment [3] (setting [5]) was < 10 nM in each case. Further, the MIC (in experiment [2]; against K. pneumoniae A6030827; in the experiment with S. aureus ATCC 29213; with E. coli AG100) was ≤ 4 µg/mL each time.

As for `Cc1oc2c(N)cccc2c1CN(C)C(=O)/C=C/c1cnc2c(c1)CC[C@H](N)C(=O)N2` (single isomer, unassigned) [Compound 193], the IC50 in experiment [1] (setting [4]) was < 10 nM. The MIC (in experiment [2]; in the experiment on S. aureus ATCC 29213; with E. coli AG100) was ≤ 4 µg/mL in each case.

In the case of `Cc1c(CN(C)C(=O)/C=C/c2cnc3c(c2)CCC(N)C(=O)N3)oc2c(Cl)cccc12.O=C(O)C(F)(F)F` (stereo not drawn) [Compound 92, (E)-3-(7-amino-8-oxo-6,7,8,9-tetrahydro-5H-pyrido[2,3-b]azepin-3-yl)-N-((7-chloro-3-methylbenzofuran-2-yl)methyl)-N-methylacrylamide 2,2,2-trifluoroacetate], the IC50 in experiment [3] was < 10 nM. Moreover, the MIC is 8 µg/mL in experiment [2], ≤ 4 µg/mL against K. pneumoniae A6030827, ≤ 4 µg/mL in the experiment on S. aureus ATCC 29213 and ≤ 4 µg/mL against E. coli AG100.

Regarding `Cc1oc2ccccc2c1CN(C)C(=O)/C=C/c1cnc2c(c1)CCC(N)C(=O)N2.Cl` (stereo not drawn) [Compound 94, (E)-3-(7-amino-8-oxo-6,7,8,9-tetrahydro-5H-pyrido[2,3-b]azepin-3-yl)-N-methyl-N-((2-methylbenzofuran-3-yl)methyl)acrylamide hydrochloride], the IC50 in experiment [3] was < 10 nM. Moreover, the MIC is ≤ 4 µg/mL in experiment [2], ≤ 4 µg/mL against K. pneumoniae A6030827, ≤ 4 µg/mL in the experiment with S. aureus ATCC 29213 and 16 µg/mL in the experiment with E. coli AG100.

In the case of `Cc1c(CN(C)C(=O)/C=C/c2cnc3c(c2)CCC(N(C)C)C(=O)N3)oc2ccccc12` (stereo not drawn) [Compound 95, (E)-3-(7-(dimethylamino)-8-oxo-6,7,8,9-tetrahydro-5H-pyrido[2,3-b]azepin-3-yl)-N-methyl-N-((3-methylbenzofuran-2-yl)methyl)acrylamide], the IC50 in experiment [3] (setting [5]) is < 10 nM. For the same compound, the MIC (in experiment [2]; in the experiment on K. pneumoniae A6030827; against S. aureus ATCC 29213; against E. coli AG100) was ≤ 4 µg/mL each time.

For `Cc1oc2ccccc2c1CN(C)C(=O)/C=C/c1cnc2c(c1)CCC(N1CCOCC1)C(=O)N2` (stereo not drawn) [Compound 173, (E)-N-methyl-N-((2-methylbenzofuran-3-yl)methyl)-3-(7-morpholino-8-oxo-6,7,8,9-tetrahydro-5H-pyrido[2,3-b]azepin-3-yl)acrylamide], the IC50 in experiment [1] (setting [4]) and in experiment [3] (setting [5]) was < 10 nM each time. The MIC (in experiment [2]; in the experiment on S. aureus ATCC 29213) was ≤ 4 µg/mL throughout.

Consider `Cc1c(CN(C)C(=O)/C=C/c2cnc3c(c2)CCC(N2CC4(CCOCC4)C2)C(=O)N3)oc2ccccc12` (stereo not drawn) [Compound 176, (E)-N-methyl-N-((3-methylbenzofuran-2-yl)methyl)-3-(8-oxo-7-(7-oxa-2-azaspiro[3.5]nonan-2-yl)-6,7,8,9-tetrahydro-5H-pyrido[2,3-b]azepin-3-yl)acrylamide], for which, in experiment [3] (setting [5]), the IC50 is < 10 nM. For the same compound, the MIC (in experiment [2]; with K. pneumoniae A6030827; with S. aureus ATCC 29213; against E. coli AG100) was ≤ 4 µg/mL in each case.

`Cc1c(CN(C)C(=O)/C=C/c2cnc3c(c2)CCC(N2CCS(=O)(=O)CC2)C(=O)N3)oc2ccccc12` (stereo not drawn) [Compound 179, (E)-3-(7-(1,1-dioxidothiomorpholino)-8-oxo-6,7,8,9-tetrahydro-5H-pyrido[2,3-b]azepin-3-yl)-N-methyl-N-((3-methylbenzofuran-2-yl)methyl)acrylamide]: the IC50 in experiment [3] (setting [5]) is < 10 nM. Further, the MIC in experiment [2] is ≤ 4 µg/mL; in the experiment with K. pneumoniae A6030827 it was 8 µg/mL (≈ 15.3 µM); against S. aureus ATCC 29213 it was ≤ 4 µg/mL; against E. coli AG100 it was 8 µg/mL (≈ 15.3 µM).

With `Cc1oc2c(N)cccc2c1CN(C)C(=O)/C=C/c1cnc2c(c1)CCC(N1CCCC1)C(=O)N2` (stereo not drawn) [Compound 191, (E)-N-((7-amino-2-methylbenzofuran-3-yl)methyl)-N-methyl-3-(8-oxo-7-(pyrrolidin-1-yl)-6,7,8,9-tetrahydro-5H-pyrido[2,3-b]azepin-3-yl)acrylamide], the IC50 in experiment [1] (setting [4]) was < 10 nM. The MIC was ≤ 4 µg/mL in experiment [2], ≤ 4 µg/mL in the experiment with S. aureus ATCC 29213 and 8 µg/mL (≈ 16.9 µM) in the experiment on E. coli AG100.
